Assay results: US20180244611A1, “Modulators of the Cystic Fibrosis Transmembrane Conductance Regulator Protein and Methods of Use” (AbbVie S.à.r.l., priority 2017, published 2018)

Experiments:
F508delCFTR [1] = biological target: T1, F508delCFTR (Homo sapiens, UniProt P13569, DEL508-508); assay: Cell Surface Expression-Horse Radish Peroxidase (CSE-HRP) assay, test compound with co-corrector; assay type: cell-based; conditions: for Maximum % activity (with co-corrector): maximum at any tested concentration;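 as to Maximum % activity (with co-corrector): percent of 2 µM positive control corrector over DMSO; co-corrector is that same compound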
T1 construct: expressed in transfected cells; host or cells: CFBE41o- human lung-derived epithelial cells (CFBE41o-F508delCFTR-HRP), doxycycline-inducible
Procedure, shortened: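 CFBE41o- cells expressing F508delCFTR with HRP in the fourth exofacial loop, induced with 0.5 μg/mL doxycycline for 72 h, then treated 18-24 h at 33° C. with compound (8 points, top 20 μM, 3-fold) plus 2 μM co-corrector. Surface HRP read by luminol luminescence; activity normalised to positive control, EC50 from variable-slope sigmoidal fit.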

F508delCFTR [2] = biological target: T1, F508delCFTR; assay: Cell Surface Expression-Horse Radish Peroxidase (CSE-HRP) assay, test compound without co-corrector; assay type: cell-based; conditions: for EC50: test compound without co-corrector;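 as to Maximum % activity (without co-corrector): percent of on-plate 2 µM positive control corrector response over DMSO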
Procedure, shortened: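 CFBE41o- cells expressing F508delCFTR with HRP in the fourth exofacial loop, induced with 0.5 μg/mL doxycycline for 72 h at 37° C, then exposed to compound alone for 18-24 h at 33° C, 8-point 3-fold series from 20 μM. Surface HRP read by luminol luminescence, normalized to positive corrector control versus DMSO; EC50 from variable-slope sigmoidal fit of three replicate plates.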

[3] = normalized to positive control, with 2 μM co-corrector
[4] = maximum at any tested concentration, normalized to positive control, without co-corrector
[5] = CSE-HRP assay, test compound with 2 μM co-corrector
[6] = normalized to on-plate positive control, with 2 μM co-corrector
[7] = maximum at any tested concentration, normalized to on-plate positive control, without co-corrector

T1 sequence (P13569 with tags, fused parts or gaps DEL508-508): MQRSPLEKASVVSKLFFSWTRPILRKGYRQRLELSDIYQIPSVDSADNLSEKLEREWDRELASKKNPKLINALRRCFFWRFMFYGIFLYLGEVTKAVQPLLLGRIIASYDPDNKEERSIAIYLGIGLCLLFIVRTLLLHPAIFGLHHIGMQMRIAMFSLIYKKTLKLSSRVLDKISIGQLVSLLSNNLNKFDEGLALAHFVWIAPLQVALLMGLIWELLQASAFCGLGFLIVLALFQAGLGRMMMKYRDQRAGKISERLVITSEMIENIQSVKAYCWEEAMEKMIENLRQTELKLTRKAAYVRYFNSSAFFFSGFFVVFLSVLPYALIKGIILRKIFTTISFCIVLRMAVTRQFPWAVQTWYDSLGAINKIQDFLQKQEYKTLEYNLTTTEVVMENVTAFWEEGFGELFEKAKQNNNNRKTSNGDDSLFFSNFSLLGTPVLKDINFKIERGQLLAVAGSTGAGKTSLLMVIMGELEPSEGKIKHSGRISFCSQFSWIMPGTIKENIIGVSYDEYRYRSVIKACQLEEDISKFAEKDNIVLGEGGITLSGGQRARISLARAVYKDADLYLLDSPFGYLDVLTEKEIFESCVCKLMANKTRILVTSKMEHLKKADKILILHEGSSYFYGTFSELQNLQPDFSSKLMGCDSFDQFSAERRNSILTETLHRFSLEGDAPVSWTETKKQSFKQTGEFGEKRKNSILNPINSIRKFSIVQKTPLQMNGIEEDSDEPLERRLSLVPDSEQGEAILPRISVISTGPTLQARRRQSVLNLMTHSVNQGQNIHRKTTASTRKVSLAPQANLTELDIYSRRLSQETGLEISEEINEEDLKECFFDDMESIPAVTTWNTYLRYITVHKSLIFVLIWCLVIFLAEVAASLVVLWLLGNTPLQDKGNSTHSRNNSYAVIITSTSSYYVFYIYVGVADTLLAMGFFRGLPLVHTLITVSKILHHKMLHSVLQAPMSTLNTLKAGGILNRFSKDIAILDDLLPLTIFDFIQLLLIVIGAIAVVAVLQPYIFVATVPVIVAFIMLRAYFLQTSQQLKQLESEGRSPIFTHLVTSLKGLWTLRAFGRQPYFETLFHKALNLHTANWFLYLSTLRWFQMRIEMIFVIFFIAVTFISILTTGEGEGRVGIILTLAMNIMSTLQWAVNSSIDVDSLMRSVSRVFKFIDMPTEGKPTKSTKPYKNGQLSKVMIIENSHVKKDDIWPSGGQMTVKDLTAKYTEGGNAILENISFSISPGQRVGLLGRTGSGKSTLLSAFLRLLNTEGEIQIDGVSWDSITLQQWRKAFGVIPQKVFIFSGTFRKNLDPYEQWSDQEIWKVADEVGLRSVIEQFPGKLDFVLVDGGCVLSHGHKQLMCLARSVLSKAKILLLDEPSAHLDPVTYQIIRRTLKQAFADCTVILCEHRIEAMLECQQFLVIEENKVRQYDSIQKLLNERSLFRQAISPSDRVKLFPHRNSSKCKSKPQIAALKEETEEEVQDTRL

Row | Compound | Maximum % activity (with co-corrector) (F508delCFTR [1]; [3]) | EC50 (F508delCFTR [1]; with 2 μM co-corrector) [µM] | Emax (F508delCFTR [2]; [4]) [%] | EC50 (F508delCFTR [2]) [µM] | EC50 (F508delCFTR [1]; [5]) [µM] | Maximum % activity (with co-corrector) (F508delCFTR [1]; [6]) | EC50 (F508delCFTR [2]; CSE-HRP assay) [µM] | Emax (F508delCFTR [2]; [7]) [%] | Maximum % activity (without co-corrector) (F508delCFTR [2]; [4])
1 | COc1ccc(Br)c2c1CCC[C@@H]2C(=O)NS(=O)(=O)c1cccc2ccccc12 [Example I-48, (1S)-8-bromo-5-methoxy-N-(naphthalene-1-sulfonyl)-1,2,3,4-tetrahydronaphthalene-1-carboxamide] | +++ (≥350) | < 3 | ≥ 150 | 3 to 10 | – | – | – | – | –
2 | COc1ccc(C2CCC2)c2c1[C@H](C(=O)NS(=O)(=O)c1cccc3cnn(C)c13)CC2 (single isomer, unassigned) [Example I-142] | +++ (≥350) | < 3 | ≥ 150 | < 3 | – | – | – | – | –
3 | CCC1(C(=O)NS(=O)(=O)c2cccc(F)c2C)CCc2c(Cl)cccc21 (centres unmarked) [II-101] | ++ (≥150 and <350) | < 3 | < 50 | < 3 | – | – | – | – | –
4 | COc1ccc(C(=O)N(C)C)c2c1C(C(=O)NS(=O)(=O)c1cccc3ccccc13)CC2 (centres unmarked) [III-187] | – | – | – | – | ≥ 10 | + (<150) | ≥ 10 | < 50 | –
5 | COc1cccc2c1CCC2C(=O)NS(=O)(=O)c1ccc(N2CCN(CC[C@@H]3OCCc4ccccc43)CC2)cc1 (some centres unmarked) [III-55] | + (<150) | 3 to 10 | < 50 | ≥ 10 | – | – | – | – | –
6 | CCC1(C(=O)NS(=O)(=O)c2ccccc2OC)CCc2c(Cl)cccc21 (centres unmarked) [II-55] | + (<150) | ≥ 10 | < 50 | ≥ 10 | – | – | – | – | –
7 | CCC1(C(=O)NS(=O)(=O)c2cccc(N3CCC(F)(F)C3)c2C)CCc2c(Cl)cccc21 (centres unmarked) [II-127] | +++ (≥350) | < 3 | 50 to 150 | 3 to 10 | – | – | – | – | –
8 | CCC1(C(=O)NS(=O)(=O)c2cccc3ccccc23)CCc2c(Cl)cccc21 (centres unmarked) [Example I-7, 4-chloro-1-ethyl-N-(naphthalene-1-sulfonyl)-2,3-dihydro-1H-indene-1-carboxamide] | +++ (≥350) | < 3 | ≥ 150 | < 3 | – | – | – | – | –
9 | Cc1ccccc1S(=O)(=O)NC(=O)C1(C)CCc2ccccc21 (centres unmarked) [II-21] | ++ (≥150 and <350) | 3 to 10 | < 50 | 3 to 10 | – | – | – | – | –
10 | (1R)-4-cyclobutyl-7-methoxy-N-(1,2,3,4-tetrahydroquinoline-8-sulfonyl)-2,3-dihydro-1H-indene-1-carboxamide [Example I-131] | +++ (≥350) | < 3 | – | < 3 | – | – | – | – | +++ (≥150)
11 | CCC1(C(=O)NS(=O)(=O)c2cccc3c2ccn3C)CCc2c(Cl)cccc21 (centres unmarked) [Example I-74, 4-chloro-1-ethyl-N-(1-methyl-1H-indole-4-sulfonyl)-2,3-dihydro-1H-indene-1-carboxamide] | +++ (≥350) | < 3 | ≥ 150 | 3 to 10 | – | – | – | – | –
12 | COc1ccc(C(F)(F)F)c2c1[C@@H](C(=O)NS(=O)(=O)c1cccc3ccccc13)CC2 [Example I-93, (1S)-7-methoxy-N-(naphthalene-1-sulfonyl)-4-(trifluoromethyl)-2,3-dihydro-1H-indene-1-carboxamide] | +++ (≥350) | 3 to 10 | ≥ 150 | 3 to 10 | – | – | – | – | –
13 | COCCCS(=O)(=O)NC(=O)C1CCc2c(OC)cccc21 (centres unmarked) [III-15] | + (<150) | ≥ 10 | < 50 | ≥ 10 | – | – | – | – | –
14 | CCC1(C(=O)NS(=O)(=O)c2c(F)cccc2F)CCc2c(Cl)cccc21 (centres unmarked) [III-115] | – | – | – | – | < 3 | ++ (≥150 and <350) | < 3 | < 50 | –
15 | N#CCC1(C(=O)NS(=O)(=O)c2cccc3ccccc23)CCc2c(Cl)cccc21 (centres unmarked) [Example III-155, 4-chloro-1-(cyanomethyl)-N-(naphthalene-1-sulfonyl)-2,3-dihydro-1H-indene-1-carboxamide] | – | – | – | – | 3 to 10 | ++ (≥150 and <350) | 3 to 10 | < 50 | –
16 | COc1ccc(Br)c2c1CC[C@@H]2C(=O)NS(=O)(=O)c1cccc2ccccc12 [Example I-85, (1S)-7-bromo-4-methoxy-N-(naphthalene-1-sulfonyl)-2,3-dihydro-1H-indene-1-carboxamide] | +++ (≥350) | 3 to 10 | 50 to 150 | 3 to 10 | – | – | – | – | –
17 | COc1ccc(-c2ccc(C)cc2F)c2c1CCCC2C(=O)NS(=O)(=O)c1cccc2ccccc12 (centres unmarked) [II-98] | +++ (≥350) | < 3 | ≥ 150 | < 3 | – | – | – | – | –

The next lines start with results.

Row | Maximum % activity (with co-corrector) (F508delCFTR [1]; [3]) | EC50 (F508delCFTR [1]; with 2 μM co-corrector) [µM] | Emax (F508delCFTR [2]; [4]) [%] | EC50 (F508delCFTR [2]) [µM] | EC50 (F508delCFTR [1]; [5]) [µM] | Maximum % activity (with co-corrector) (F508delCFTR [1]; [6]) | EC50 (F508delCFTR [2]; CSE-HRP assay) [µM] | Emax (F508delCFTR [2]; [7]) [%] | Compound | Maximum % activity (without co-corrector) (F508delCFTR [2]; [4])
18 | + (<150) | ≥ 10 | < 50 | ≥ 10 | – | – | – | – | COc1cccc2c1CCC2C(=O)NS(=O)(=O)c1ccc(NC(=O)CC(C)=O)cc1 (centres unmarked) [III-36] | –
19 | – | – | – | – | ≥ 10 | + (<150) | ≥ 10 | < 50 | CCC1(C(=O)NS(=O)(=O)c2cc(Cl)ccc2Cl)CCc2c(Cl)cccc21 (centres unmarked) [III-116] | –
20 | ++ (≥150 and <350) | 3 to 10 | 50 to 150 | 3 to 10 | – | – | – | – | Cc1ccccc1S(=O)(=O)NC(=O)C1CCCc2cccc(Cl)c21 (centres unmarked) [II-10] | –
21 | +++ (≥350) | < 3 | ≥ 150 | < 3 | – | – | – | – | COc1ccc(Cl)c2c1C(C(=O)NS(=O)(=O)c1cccc3ccccc13)CCC2 (centres unmarked) [Example I-70, 5-chloro-8-methoxy-N-(naphthalene-1-sulfonyl)-1,2,3,4-tetrahydronaphthalene-1-carboxamide] | –
22 | + (<150) | ≥ 10 | < 50 | ≥ 10 | – | – | – | – | COc1cccc2c1CCC2C(=O)NS(=O)(=O)c1ccc2ccccc2c1 (centres unmarked) [III-34] | –
23 | + (<150) | 3 to 10 | < 50 | ≥ 10 | – | – | – | – | Cc1ccccc1S(=O)(=O)NC(=O)C1CCc2ccccc21 (centres unmarked) [II-11] | –
24 | +++ (≥350) | < 3 | ≥ 150 | 3 to 10 | – | – | – | – | O=C(NS(=O)(=O)c1cccc2ccccc12)C1CCCc2cccc(Cl)c21 (centres unmarked) [Example I-2, 8-chloro-N-(naphthalene-1-sulfonyl)-1,2,3,4-tetrahydronaphthalene-1-carboxamide] | –
25 | + (<150) | ≥ 10 | < 50 | ≥ 10 | – | – | – | – | COc1cccc2c1CCC2C(=O)NS(=O)(=O)c1cc([N+](=O)[O-])ccc1Cl (centres unmarked) [III-40] | –
26 | – | – | – | – | 3 to 10 | ++ (≥150 and <350) | ≥ 10 | < 50 | Cc1ccccc1S(=O)(=O)NC(=O)C1CCc2c(-c3ccncc3F)cccc21 (centres unmarked) [III-94] | –
27 | +++ (≥350) | 3 to 10 | ≥ 150 | 3 to 10 | – | – | – | – | COc1cccc2c1CCCC2C(=O)NS(=O)(=O)c1cccc2ccccc12 (centres unmarked) [Example I-4, 5-methoxy-N-(naphthalene-1-sulfonyl)-1,2,3,4-tetrahydronaphthalene-1-carboxamide] | –
28 | + (<150) | 3 to 10 | < 50 | ≥ 10 | – | – | – | – | COc1cccc2c1CCC2C(=O)NS(=O)(=O)c1cc(C)ccc1C(C)C (centres unmarked) [III-25] | –
29 | ++ (≥150 and <350) | 3 to 10 | < 50 | ≥ 10 | – | – | – | – | O=C(NS(=O)(=O)c1ccc(Cl)cc1)C1CCc2c(Cl)cccc21 (centres unmarked) [II-27] | –
